pIC50: −log10 of the molar value. Where two headings read alike, the source gives them in different places.
Legend:
[1] = biological target: mouse small intestinal UPase enzyme (Mus musculus, UniProt P52624); experiment: UPase inhibition in mouse small intestinal tissue homogenate (HPLC of uracil); assay type: biochemical
Procedure: A range of TK-112690 doses were studied for the their ability to prevent metabolic breakdown of uridine through the in vitro inhibition of mouse and human small intestinal UPase enzyme. UPase activity was determined by HPLC analysis using UV detection of uracil concentration (UPase catabolizes uridine into uracil and ribose-1-phosphate). The UPase enzyme material was prepared from homogenized mouse and human being small intestinal tissue. TK-112690 was dissolved in water (50 mg/ml) and analyzed for UPase inhibition in aqueous solution containing 5 mM uridine, 0.01 M Tris, 0.01 M phosphate, 1 mM EDTA, and 1 mM DTT. Reactions were performed at 37° C. at pH of 7.3.
The aim of this study was to evaluate TK-112690 […] as an inhibitor of uridine phosphorylase (UPase) enzyme activity. The range of TK-112690 doses studied for ability to prevent metabolic breakdown of uridine, through the in vitro inhibition of mouse and human small intestinal UPase enzyme, was 0, 0.1, 0.5, 1, 5, 10, 50, 100, 500, 1000, 5000 and 10000 μM). Detection of UPase activity was determined by HPLC analysis using UV detection of uracil concentration (UPase catabolizes uridine into uracil and ribose-1-phosphate).
The UPase enzyme material was prepared from homogenized mouse and human being small intestinal tissue. TK-112690 was dissolved in water (50 mg/ml) and analyzed for UPase inhibition in aqueous solution containing 5 mM uridine, 0.01 M Tris, 0.01 M phosphate, 1 mM EDTA, and 1 mM DTT. Reactions were performed at 37° C. at pH of 7.3.
TK-11260 inhibition of mouse and human UPase was analyzed by reverse phase HPLC using UV detection. HPLC analysis was performed at ambient temperature with a Water 2695 Alliance system equipped with a C18 ECONOSIL 5 U ALLtech column. 20 μl of UPase reaction samples were auto-injected onto column. Mobile phase consisted of water eluting for first 2.5 ml and acetonitrile gradient to 100% in 12.5 ml (flow rate 0.5 ml/min). The outlet fluent was monitored by UV absorption in the range of 240-320 nm. UPase enzymatic activity was based on the AUC of the uracil peaks.

[2] = tested on: Drosophila melanogaster; experiment: Fly Study I: protection from MTX-induced lethality; assay type: in vivo; settings: with MTX 0.4 mg; TK-112690 0.005 to 0.1 mg
Procedure: In this study, Drosophila melanogaster eggs (50 eggs per vial) were treated with either 0.005 mg TK-112690+0.4 mg MTX (Group 1), 0.01 mg TK-112690+0.4 mg MTX (Group 2), 0.04 mg TK-112690+0.4 mg MTX (Group 3), 0.1 mg TK-112690+0.4 mg MTX (Group 4), 0.4 mg MTX alone (Group 5) or saline blank (Group 6). Two vials of eggs for each dose group were evaluated for viability (viable flies plus pupae).
The efficacy of cancer chemotherapy can be improved if agents are available to reduce the adverse events associated with treatment with cytotoxic agents. To this end, Drosophila melanogaster (commonly know as the fruit fly) is an ideal organism to screen chemical compounds for such side-effect-reducing agents. This study is aimed at finding a dose of a 2,2′-anhydropyrimidine test article that protects against MTX-induced lethality in insects.
Increasing amounts of a 2,2′-anhydropyrimidine test article (typically 0.03 to 0.1 mg) are mixed in an aqueous solution with 0.3 (or 0.4) mg MTX. Four milliliters (mL) of a 2,2′-anhydropyrimidine test article+MTX solutions are added to an appropriate amount of instant fly medium. Fruit fly eggs are added to a 2,2′-anhydropyrimidine test article+MTX treated medium and incubated for up to 31 days. After the 31 day incubation, each assay is scored by the number of mature fly and pupae per vial.
The assays are set up in clear sterile polystyrene narrow diameter vials from Applied Scientific (Hampton, N.H.). Vials are stored in trays and incubated in a darkened 25° C. incubator.
Reagents and materials used are: 50 mg/mL MTX in H2O (pH 8), 20 mg/mL of the 2,2′-anhydropyrimidine test article in H2O, water, sterile polystyrene narrow diameter vials from Applied Scientific, Instant Drosophila Food Medium, Oregon-R Drosophila melanogaster, 25° C. incubator, and 15 mL polystyrene conical tubes
Each assay is performed in a separate fly vial. […] Pre-measured amounts of instant drosophila medium are added to each assay to achieve optimal hydration level. […] Assays are scored by the number of dead pupae or adult flies per vial.

[3] = tested on: CCRF-CEM cells; experiment: Cell Culture Study I: MTX cytotoxicity, alamarBlue; assay type: cell-based, human; settings: 72 hours
Procedure: In this study, CCRF-CEM cells purchased from ATCC were cultured and then 12 tubes containing approximately 10^6 cells each treated for 72 hours with media (Group1), MTX 0.03 μM (Group2), MTX+Leucovorin 1 μM (Group3), MTX+Leucovorin 10 μM (Group4), MTX+Leucovorin 100 μM (Group5), MTX+TK-112690 1 μM (Group6), MTX+TK-112690 10 μM (Group7) and MTX+TK-112690 100 μM (Group8). […] Viability was measured as percent reduction of alamarBlue absorbance.
The tumor cell line CCR-CEM (human T-cell acute lymphoblastic leukemia) is obtained from American Type Culture Collection (CRL-1593.2) and cultured in accordance with the product information sheet with the following exceptions: 55.3 cm^2 Petri dishes are used instead of 75 cm^2 culture flasks, and 1% penicillin-streptomycin solution (HyClone SV30010) and 1% GlutaMAX™ (Gibco 35050) are added to the culture medium.
TK-112690, the representative 2,2′-anhydropyrimidine test article, is dissolved in 40% DMSO, sterile filtered then diluted with sterile distilled water to obtain initial working solutions of 10, 100 and 1000 μM. In testing, a 100 fold dilution is made in culture media to give final assay concentrations of 0.1, 1.0 and 10.0 μM. MTX (SAFC Biosciences M8407) is dissolved in sterile distilled water and 5 N NaOH then sterile filtered. The final pH of the stock solution is 7.8 and working solutions are made with sterile distilled water for final assay concentrations of 30, 3.0, 0.3, 0.03 and 0.003 μM. Leucovorin (Sigma F-7878) is dissolved in sterile distilled water, sterile filtered and diluted with sterile distilled water for final assay concentrations of 0.1, 1.0 and 10.0 μM.
Aliquots of 100 μL of cell suspension are plated in 96 well microtiter plates (Corning costar 3595) and placed in an atmosphere of 5% CO2 at 37° C. (Fisher Scientific Isotemp 3500 CO2 Incubator). After 24 hours, 100 μL of growth medium [RPMI-1640 w/L-glutamine (Cambrex 12-702Q) fortified with sodium pyruvate (HyClone SH30239.01), fetal bovine serum (SAFC Biosciences 12107C) and HEPES buffer (Gibco 15630)] and 2 μL of test solution or vehicle are added respectively per well and the plates incubated for an additional 72 hour incubation. MTX is evaluated at concentrations of 0.003, 0.03, 0.30 and 3.0 μM alone or in combination with either a 2,2′-anhydropyrimidine test article or Leucovorin at concentrations of 0.1, 1.0, 10.0 μM. At the end of incubation, the efficacy of anti-cell proliferation is determined by optical absorbance at λ=570 and 600 nm [Spectramax 250 (Molecular Devices)] in accordance with the standard alamarBlue™ (Biosource) protocol.
Group 1 is the cell control (media treated). Group 2 corresponds to cells treated with 0.03 μM MTX. Group 3 are cells treated with 1.0 μM Leucovorin. Group 4 are cells treated with 0.1 μM Leucovorin. Group 5 are cells treated with 10 μM TK-112690. Group 6 are cells treated with MTX+10 μM TK-112690. Group 7 are cells treated with MTX+1.0 μM TK-112690. Group 8 MTX+0.1 μM TK-112690.

[4] = Table 3, murine UPase, test method of Experiment IX, read-out: UPase IC50

mouse small intestinal UPase enzyme, sequence (P52624 whole entry, looked up): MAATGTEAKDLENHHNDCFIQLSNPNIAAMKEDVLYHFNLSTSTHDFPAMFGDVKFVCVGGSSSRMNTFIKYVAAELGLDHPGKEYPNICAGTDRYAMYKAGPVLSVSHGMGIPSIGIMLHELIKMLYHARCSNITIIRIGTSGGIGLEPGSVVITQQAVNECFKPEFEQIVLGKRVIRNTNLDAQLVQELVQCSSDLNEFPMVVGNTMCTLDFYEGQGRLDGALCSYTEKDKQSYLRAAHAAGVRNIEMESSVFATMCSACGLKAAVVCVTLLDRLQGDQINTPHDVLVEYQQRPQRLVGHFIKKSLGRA

pIC50 [1, 4]	Compound	further results
> 4.00	O=c1nc2n(cc1NCc1ccccc1)[C@@H]1O[C@H](CO)[C@@H](O)[C@@H]1O2 [TK-000006]	–
> 4.00	CCOCc1cn2c(nc1=O)O[C@H]1[C@H](O)[C@@H](CO)O[C@H]12 [TK-000007]	–
< 4.00	Cc1cn2c(nc1=O)O[C@H]1[C@H](O)[C@@H](CN=[N+]=[N-])O[C@H]12 [TK-000011]	–
> 4.00	COCc1cn2c(nc1=O)O[C@H]1[C@H](O)[C@@H](CO)O[C@H]12 [TK-000009]	protection against MTX-induced lethality in the Fly model [2]: active
< 4.00	Cc1cn2c(nc1=O)O[C@H]1C(O)[C@@H](CF)O[C@H]12 (some centres unmarked) [TK-000015]	–
> 4.00	O=c1nc2n(cc1COCc1ccccc1)[C@@H]1O[C@H](CO)[C@@H](O)[C@@H]1O2 [TK-000008]	–
–	Nc1nc2c(c(=O)[nH]1)N(C=O)C(CNc1ccc(C(=O)N[C@@H](CCC(=O)O)C(=O)O)cc1)CN2 (some centres unmarked) [Leucovorin]	effect on MTX cytotoxicity (viability, alamarBlue) ([3]; combined with MTX 0.03 μM): statistically different than Group 2; viability, agent alone vs control ([3]; without MTX): not statistically different than control
< 4.00	CC(=N)OCc1cn2c(nc1=O)O[C@H]1[C@H](O)[C@@H](CO)O[C@H]12 [TK-000010]	–
–	Cc1ccc(SCc2cn3c(nc2=O)O[C@H]2C(O)[C@@H](CO)O[C@H]23)cc1 (some centres unmarked) [TK-000016]	pIC50 ([1]; 5 mM uridine, 37° C., pH 7.3, read-out: IC50, mouse small intestinal (murine) UPase): > 4.00
